From EPA's CvTdb concentration-time database

Experiments:
Rat [1] = test: concentration in brain after dosing; conditions: 3 h; dosed: alpha-Thujone; 25 mg/kg; oral; Male; Harlan Sprague Dawley
Rat [2] = test: concentration in brain after dosing; conditions: 1.5 h; dosed: alpha-Thujone; 50 mg/kg; oral; Female; Harlan Sprague Dawley
Rat [3] = test: concentration in brain after dosing; conditions: 1.5 h; dosed: alpha-Thujone; 50 mg/kg; oral; Male; Harlan Sprague Dawley
Rat [4] = test: concentration in brain after dosing; conditions: 5 min; dosed: alpha-Thujone; 25 mg/kg; oral; Male; Harlan Sprague Dawley
Rat [5] = test: concentration in brain after dosing; conditions: 2 min; dosed: alpha-Thujone; 50 mg/kg; oral; Male; Harlan Sprague Dawley
Rat [6] = test: concentration in plasma after dosing; conditions: 1.5 h; dosed: alpha-Thujone; 25 mg/kg; oral; Male; Harlan Sprague Dawley
Rat [7] = test: concentration in plasma after dosing; conditions: 12 h; dosed: alpha-Thujone; 25 mg/kg; oral; Male; Harlan Sprague Dawley
Rat [8] = test: concentration in plasma after dosing; conditions: 0.5 h; dosed: alpha-Thujone; 50 mg/kg; oral; Female; Harlan Sprague Dawley
Rat [9] = test: concentration in plasma after dosing; conditions: 10 min; dosed: alpha-Thujone; 25 mg/kg; oral; Male; Harlan Sprague Dawley
Rat [10] = test: concentration in plasma after dosing; conditions: 12 h; dosed: alpha-Thujone; 50 mg/kg; oral; Male; Harlan Sprague Dawley
Rat [11] = test: concentration in plasma after dosing; conditions: 5 min; dosed: Pyridine; 10 mg/kg; iv; Male; F344
Rat [12] = test: concentration in plasma after dosing; conditions: 5 min; dosed: Pyridine; 10 mg/kg; iv; Male; F344; remark: listed apart in the source
Rat [13] = test: concentration in plasma after dosing; conditions: 50 min; dosed: Pyridine; 10 mg/kg; iv; Male; F344
Rat [14] = test: concentration in plasma after dosing; conditions: 2 min; dosed: Pyridine; 10 mg/kg; oral; Male; F344
Rat [15] = test: concentration in plasma after dosing; conditions: dosed: Pyridine, 5 mg/kg, oral, Male, F344
Rat [16] = test: concentration in plasma after dosing; conditions: dosed: Methyleugenol, 37 mg/kg, oral, Female, F344/N
Rat [17] = test: concentration in plasma after dosing; conditions: dosed: Methyleugenol, 37 mg/kg, oral, Male, F344/N
Rat [18] = test: concentration in plasma after dosing; conditions: dosed: Methyleugenol, 37 mg/kg, iv, Male, F344
rat [19] = test: concentration in blood after dosing; negative times count back from the end of exposure; conditions: dosed: trichloroethylene, 50 ppm, inhalation, duration: 4 hr, male, Sprague Dawley
Rat [20] = test: concentration in plasma after dosing; conditions: 0.5 h; dosed: Primidone; 80 mg/kg; oral; Female; F344
Rat [21] = test: concentration in plasma after dosing; conditions: 0.25 h; dosed: Primidone; 30 mg/kg; oral; Female; F344
Rat [22] = test: concentration in plasma after dosing; conditions: dosed: 2-Hydroxy-4-methoxybenzophenone, 250 mg/kg, oral, Male, F344
Rat [23] = test: concentration in plasma after dosing; conditions: 6 h; dosed: 2-Hydroxy-4-methoxybenzophenone; 500 mg/kg; oral; Male; F344
Mouse = test: concentration in plasma after dosing; conditions: 3 h; dosed: 2-Hydroxy-4-methoxybenzophenone; 250 mg/kg; oral; Female; B6C3F1
Rat [24] = test: concentration in plasma after dosing; conditions: dosed: 2-Hydroxy-4-methoxybenzophenone, 500 mg/kg, oral, Male, F344
Rat [25] = test: concentration in plasma after dosing; conditions: dosed: 2-Hydroxy-4-methoxybenzophenone, 100 mg/kg, oral, Male, F344
Rat [26] = test: concentration in plasma after dosing; conditions: dosed: 2-Hydroxy-4-methoxybenzophenone, 100 mg/kg, oral, Male, F344; remark: listed apart in the source
Rat [27] = test: concentration in liver after dosing; conditions: 12 h; dosed: Perfluorohexane-1-sulphonic acid – potassium salt; 16 mg/kg; oral; Female; F344
Rat [28] = test: concentration in liver after dosing; conditions: 3 h; dosed: Perfluorohexane-1-sulphonic acid – potassium salt; 16 mg/kg; oral; Female; F344
Rat [29] = test: concentration in brain after dosing; conditions: 6 h; dosed: Perfluorohexane-1-sulphonic acid – potassium salt; 16 mg/kg; oral; Female; Harlan Sprague Dawley
Rat [30] = test: concentration in plasma after dosing; conditions: dosed: Perfluorohexane-1-sulphonic acid – potassium salt, 4 mg/kg, oral, Male, F344
Rat [31] = test: concentration in kidney after dosing; conditions: dosed: Perfluorohexane-1-sulphonic acid – potassium salt, 16 mg/kg, oral

CC(C)[C@]12CC(=O)[C@H](C)[C@H]1C2 [alpha-Thujone]
Conditions | concentration in brain [ng/g] | concentration in plasma [ng/mL]
Rat [1] | 130 | –
Rat [2] | 1360 | –
Rat [3] | 1800 | –
Rat [4] | 1220 | –
Rat [5] | 23.4 | –
Rat [6] | – | 240
Rat [7] | – | 20.5
Rat [8] | – | 5000
Rat [9] | – | 464
Rat [10] | – | 20

c1ccncc1 [Pyridine]
Conditions | concentration in plasma [ng/mL]
Rat [11] | 2510
Rat [12] | 8970
Rat [13] | 4150
Rat [14] | 453

Rat [15]
Conditions | concentration in plasma [ng/mL]
0.5 h | 3170
6 h | 1620

C=CCc1ccc(OC)c(OC)c1 [Methyleugenol]
Conditions | concentration in plasma [ng/mL]
Rat [16], 2 h | 25.2
Rat [16], 2 min | 13.3
Rat [17], 1 h | 59.2
Rat [17], 5 h | 18.6
Rat [18], 0.5 h | 4010
Rat [18], 0.75 h | 2000

OCC(Cl)(Cl)Cl [trichloroethanol (free)]
rat [19]
Conditions | concentration in blood [ng/mL]
0.1894 h | 1660
0.429 h | 1600
0.9471 h | 1580
1.964 h | 1500
3.996 h | 1440
5.928 h | 1510
7.943 h | 1140
9.955 h | 1050
11.95 h | 1030
13.94 h | 1040
15.88 h | 449
17.91 h | 747

rat [19], during exposure
Conditions | concentration in blood [ng/mL]
-180 s | 1690
-2.968 h | 427
-1.958 h | 1200
-1.022 h | 1260

CCC1(c2ccccc2)C(=O)NCNC1=O [Primidone]
Conditions | concentration in plasma [ng/mL]
Rat [20] | 40300
Rat [21] | 17700

O=C(c1ccccc1)c1ccc(O)cc1O [2,4-Dihydroxybenzophenone]
concentration in plasma [ng/mL]
Conditions | Rat [22] | Rat [24] | Rat [25] | Rat [26]
0.5 h | 256 | 236 | 142 | 160
5 h | – | – | 65.6 | 40
10 h | 66.8 | – | – | –
12 h | – | 151 | – | –

Conditions | concentration in plasma [ng/mL]
Mouse | 162
Rat [23] | 245

O=S(=O)([O-])C(F)(F)C(F)(F)C(F)(F)C(F)(F)C(F)(F)C(F)(F)F.[K+] [Perfluorohexane-1-sulphonic acid – potassium salt]
Conditions | concentration in brain [ng/g] | concentration in liver [ng/g]
Rat [27] | – | 70300
Rat [28] | – | 57000
Rat [29] | 1100 | –

Rat [30]
Conditions | concentration in plasma [ng/mL]
0.25 h | 6180
6 h | 68100
528 h | 13900

concentration in kidney [ng/g], Rat [31]
Conditions | 3 h | 6 h | 12 h | 24 h | 48 h | 96 h | 192 h | 528 h | 1200 h
Female, F344 | 29100 | 37500 | 41400 | 38500 | – | – | 16300 | 12700 | –
Female, Harlan Sprague Dawley | 29000 | 39200 | 26200 | 17200 | 7840 | 5860 | 2010 | – | –
Male, Harlan Sprague Dawley | – | – | – | – | – | – | – | – | 5590
